{"source": "patent US8674172B2", "about": "“Prostate cancer cell lines and their use in screening method” (Institut Gustave Roussy, priority 2009, dated 2014)", "format_in_all_cases": "cell-based, human", "key": {"IGR-CaP1 cells [1]": {"test_system": "IGR-CaP1 cells", "assay": "Cell cycle analysis by flow cytometry after propidium iodide staining", "conditions": "sensitive IGR-CaP1 cells, 100 nM docetaxel for 48 h", "protocol": "(§1) Freshly plated IGR-CaP1 and IGR-CaP1-R100 cells were incubated for 48 h in complete medium containing or not 100 nM of docetaxel. Cell cycle distribution was studied on 70% cold ethanol-fixed cells, by propidium iodide staining (50 μg in PBS) and RNAse treatment (20 μg) followed by flow cytometry analysis (FACScalibur Becton-Dickinson)."}, "IGR-CaP1-R100 cells": {"test_system": "IGR-CaP1-R100 cells", "assay": "Cell cycle analysis by flow cytometry after propidium iodide staining", "conditions": "IGR-CaP1-R100 cells resistant to 100 nM docetaxel, 100 nM docetaxel for 48 h", "protocol": "as §1"}, "IGR-CaP1 cells [2]": {"test_system": "IGR-CaP1 cells", "assay": "Hormone-dependent growth assay (WST1 cell survival)", "conditions": "10^-9M DHT for 72 hours, phenol red free medium with charcoal-stripped serum", "protocol": "(§2) The cell growth kinetic was determined by counting the viable cell number at regular intervals. Cells were seeded in triplicate at 4000 cells/well in 12 well plates in normal culture medium or in medium containing 10% of charcoal-stripped serum. Each day, cells were colored with trypan blue and counted. The doubling-time was calculated from regression equation of the curve. For the hormone-dependent growth assay, cells were seeded at 10 000 cells/well in 96 well plates. After 24 h, the culture medium was replaced with medium without phenol red containing 10% of charcoal-stripped serum and the DHT was added or not at the final concentration of 10^−9M. The medium was replaced each day. After 72 hours, cell survival was measured with the WST1 test according the manufacturer's procedures."}, "LNCaP cells": {"test_system": "LNCaP cells", "assay": "Hormone-dependent growth assay (WST1 cell survival)", "conditions": "10^-9M DHT for 72 hours, phenol red free medium with charcoal-stripped serum", "protocol": "as §2"}, "PC3 cells": {"test_system": "PC3 cells", "assay": "Hormone-dependent growth assay (WST1 cell survival)", "conditions": "10^-9M DHT for 72 hours, phenol red free medium with charcoal-stripped serum", "protocol": "as §2"}, "IGR-CaP1-R100 cell line": {"test_system": "IGR-CaP1-R100 cell line", "assay": "Resistance of the cell line to a cytotoxic drug"}}, "note": "“Also recorded” adds a separate entry of the source.", "data": [{"smiles": "CC(=O)O[C@@]12CO[C@@H]1C[C@H](O)[C@@]1(C)C(=O)[C@H](O)C3=C(C)[C@@H](OC(=O)[C@H](O)[C@@H](NC(=O)OC(C)(C)C)c4ccccc4)C[C@@](O)([C@@H](OC(=O)c4ccccc4)[C@H]21)C3(C)C", "note": "[docetaxel]", "values": [{"measurement": "Cell cycle distribution (block in G2-M phase)", "setting": "IGR-CaP1 cells [1]", "value": "blocked in G2-M phase"}, {"measurement": "Cell cycle distribution (block in G2-M phase)", "setting": "IGR-CaP1-R100 cells", "value": "normally cycle; also recorded: not blocked in G2-M phase"}]}, {"smiles": "C[C@]12CCC(=O)C[C@@H]1CC[C@@H]1[C@@H]2CC[C@]2(C)[C@@H](O)CC[C@@H]12", "note": "[DHT]", "values": [{"measurement": "Cellular growth in the presence of androgen", "setting": "IGR-CaP1 cells [2]", "value": "did not affect the cellular growth"}, {"measurement": "Cellular growth in the presence of androgen", "setting": "LNCaP cells", "value": "increased"}, {"measurement": "Cellular growth in the presence of androgen", "setting": "PC3 cells", "value": "did not affect the cellular growth"}]}, {"smiles": "N.N.[Cl][Pt][Cl]", "note": "[cisplatin]", "values": [{"measurement": "Resistance of the cell line to the drug", "setting": "IGR-CaP1-R100 cell line", "value": "resistant"}]}]}
